US20240269139A1, “COMPOUNDS FOR TARGETED PROTEIN DEGRADATION OF KINASES” (DANA-FARBER CANCER INSTITUTE, INC., priority 2020, published 2024)
Where “and” joins values, the source holds several entries; their conditions need not be identical. Identical values can stand only once. Like-named read-outs stand apart in the source and are kept apart here.

Tests used:
Assay type in all cases: cell-based
[1] = target: T1, protein kinases (human kinome) (Homo sapiens, UniProt Q53H12); conditions: direction down
T1 sequence (Q53H12 1-422): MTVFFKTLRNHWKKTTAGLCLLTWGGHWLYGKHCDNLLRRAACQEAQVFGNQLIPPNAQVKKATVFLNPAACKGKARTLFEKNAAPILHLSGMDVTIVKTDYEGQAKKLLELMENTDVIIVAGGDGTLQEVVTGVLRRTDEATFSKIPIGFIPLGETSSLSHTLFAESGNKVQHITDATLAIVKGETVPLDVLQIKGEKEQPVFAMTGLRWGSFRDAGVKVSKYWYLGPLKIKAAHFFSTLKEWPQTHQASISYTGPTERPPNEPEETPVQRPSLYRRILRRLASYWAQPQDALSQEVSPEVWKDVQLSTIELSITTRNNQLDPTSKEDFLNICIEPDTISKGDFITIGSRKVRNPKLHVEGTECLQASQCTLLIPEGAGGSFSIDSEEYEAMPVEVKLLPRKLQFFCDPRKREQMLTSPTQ

[2] = target: T2, protein kinases (human kinome) (Homo sapiens, UniProt Q4G0N4); conditions: Accession Q4GON4, direction down
T2 sequence (Q4G0N4 63-442): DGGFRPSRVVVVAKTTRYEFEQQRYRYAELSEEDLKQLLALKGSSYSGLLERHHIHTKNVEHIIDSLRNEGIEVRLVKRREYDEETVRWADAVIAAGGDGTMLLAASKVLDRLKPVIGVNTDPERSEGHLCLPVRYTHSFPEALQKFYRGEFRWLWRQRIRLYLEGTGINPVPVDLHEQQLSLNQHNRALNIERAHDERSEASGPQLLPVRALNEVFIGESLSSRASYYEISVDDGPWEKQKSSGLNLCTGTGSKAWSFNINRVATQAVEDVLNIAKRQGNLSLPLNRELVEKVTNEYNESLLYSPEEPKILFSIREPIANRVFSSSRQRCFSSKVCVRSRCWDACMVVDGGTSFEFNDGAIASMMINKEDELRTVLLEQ

[3] = target: protein kinases (human kinome) (Homo sapiens, UniProt Q07912); conditions: for logFC TNK2 (Q07912-1): direction down; for logFC TNK2: TNK2 (Q07912-1)
[4] = target: T3, protein kinases (human kinome) (Homo sapiens, UniProt Q9UEE5); conditions: STK17A Q9UEE5
T3 sequence (Q9UEE5 1-414): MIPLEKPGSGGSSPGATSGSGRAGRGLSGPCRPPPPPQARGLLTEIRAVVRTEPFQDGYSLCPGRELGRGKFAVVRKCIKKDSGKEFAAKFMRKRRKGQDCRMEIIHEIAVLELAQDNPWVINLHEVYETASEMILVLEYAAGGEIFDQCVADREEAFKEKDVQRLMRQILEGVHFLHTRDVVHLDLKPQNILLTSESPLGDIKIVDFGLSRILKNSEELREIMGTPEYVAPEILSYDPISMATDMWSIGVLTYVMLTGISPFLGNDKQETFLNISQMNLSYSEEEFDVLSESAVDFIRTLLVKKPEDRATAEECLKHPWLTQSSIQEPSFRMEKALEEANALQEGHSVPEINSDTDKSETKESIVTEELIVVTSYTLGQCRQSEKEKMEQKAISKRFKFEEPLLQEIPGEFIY

[5] = target: T4, protein kinases (human kinome) (Homo sapiens, UniProt O94768); conditions: for logFC STK17B (O94768): direction down; for logFC: STK17B (O94768)
T4 sequence (O94768 1-372): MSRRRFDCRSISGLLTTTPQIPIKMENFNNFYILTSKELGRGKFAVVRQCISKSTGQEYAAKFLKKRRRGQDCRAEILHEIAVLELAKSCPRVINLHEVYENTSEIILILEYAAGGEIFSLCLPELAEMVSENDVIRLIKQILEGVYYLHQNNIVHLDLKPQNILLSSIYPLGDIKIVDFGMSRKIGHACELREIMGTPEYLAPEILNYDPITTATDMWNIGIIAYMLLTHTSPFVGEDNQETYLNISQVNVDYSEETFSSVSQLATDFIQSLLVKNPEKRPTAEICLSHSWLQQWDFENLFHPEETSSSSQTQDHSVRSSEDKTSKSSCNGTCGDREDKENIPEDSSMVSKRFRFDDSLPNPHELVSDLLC

[6] = target: protein kinases (human kinome) (Homo sapiens, UniProt P50613); conditions: CDK7 P50613
[7] = target: protein kinases (human kinome) (Homo sapiens, UniProt P42684); conditions: for logFC: ABL2 (P42684) protein abundance, degrader vs DMSO, down
protein kinases (human kinome) (Homo sapiens, UniProt P42684), sequence (P42684 whole entry): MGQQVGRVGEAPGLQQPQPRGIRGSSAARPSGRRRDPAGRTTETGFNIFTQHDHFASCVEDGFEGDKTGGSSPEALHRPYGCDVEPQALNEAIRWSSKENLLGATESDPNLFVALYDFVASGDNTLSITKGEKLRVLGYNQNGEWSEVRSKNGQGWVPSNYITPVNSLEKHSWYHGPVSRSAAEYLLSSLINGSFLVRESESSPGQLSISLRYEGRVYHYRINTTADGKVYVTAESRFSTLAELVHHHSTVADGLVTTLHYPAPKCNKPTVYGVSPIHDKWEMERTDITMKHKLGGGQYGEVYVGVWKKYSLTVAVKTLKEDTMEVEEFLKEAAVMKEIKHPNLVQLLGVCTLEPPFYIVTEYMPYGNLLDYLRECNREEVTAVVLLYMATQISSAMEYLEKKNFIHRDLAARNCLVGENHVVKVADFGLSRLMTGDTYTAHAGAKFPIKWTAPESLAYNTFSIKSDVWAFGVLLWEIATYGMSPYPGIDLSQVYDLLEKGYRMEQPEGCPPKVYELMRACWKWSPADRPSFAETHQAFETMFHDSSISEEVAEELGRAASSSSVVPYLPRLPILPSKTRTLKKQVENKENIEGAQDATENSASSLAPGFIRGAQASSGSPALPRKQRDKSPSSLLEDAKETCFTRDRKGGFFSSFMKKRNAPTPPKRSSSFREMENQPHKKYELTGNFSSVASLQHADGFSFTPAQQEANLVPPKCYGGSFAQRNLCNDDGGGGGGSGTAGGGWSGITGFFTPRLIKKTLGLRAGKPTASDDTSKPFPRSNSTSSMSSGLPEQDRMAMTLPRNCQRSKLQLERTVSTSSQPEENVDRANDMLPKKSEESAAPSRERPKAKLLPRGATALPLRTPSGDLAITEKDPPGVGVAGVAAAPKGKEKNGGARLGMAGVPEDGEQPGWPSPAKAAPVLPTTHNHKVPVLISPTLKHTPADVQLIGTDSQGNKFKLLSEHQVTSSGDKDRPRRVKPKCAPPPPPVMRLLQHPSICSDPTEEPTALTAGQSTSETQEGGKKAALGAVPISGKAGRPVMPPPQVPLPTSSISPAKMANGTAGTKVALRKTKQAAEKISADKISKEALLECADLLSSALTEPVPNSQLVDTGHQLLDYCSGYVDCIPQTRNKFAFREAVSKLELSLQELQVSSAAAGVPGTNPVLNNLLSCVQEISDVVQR

protein kinases (human kinome) (Homo sapiens, UniProt Q07912), sequence (Q07912 whole entry): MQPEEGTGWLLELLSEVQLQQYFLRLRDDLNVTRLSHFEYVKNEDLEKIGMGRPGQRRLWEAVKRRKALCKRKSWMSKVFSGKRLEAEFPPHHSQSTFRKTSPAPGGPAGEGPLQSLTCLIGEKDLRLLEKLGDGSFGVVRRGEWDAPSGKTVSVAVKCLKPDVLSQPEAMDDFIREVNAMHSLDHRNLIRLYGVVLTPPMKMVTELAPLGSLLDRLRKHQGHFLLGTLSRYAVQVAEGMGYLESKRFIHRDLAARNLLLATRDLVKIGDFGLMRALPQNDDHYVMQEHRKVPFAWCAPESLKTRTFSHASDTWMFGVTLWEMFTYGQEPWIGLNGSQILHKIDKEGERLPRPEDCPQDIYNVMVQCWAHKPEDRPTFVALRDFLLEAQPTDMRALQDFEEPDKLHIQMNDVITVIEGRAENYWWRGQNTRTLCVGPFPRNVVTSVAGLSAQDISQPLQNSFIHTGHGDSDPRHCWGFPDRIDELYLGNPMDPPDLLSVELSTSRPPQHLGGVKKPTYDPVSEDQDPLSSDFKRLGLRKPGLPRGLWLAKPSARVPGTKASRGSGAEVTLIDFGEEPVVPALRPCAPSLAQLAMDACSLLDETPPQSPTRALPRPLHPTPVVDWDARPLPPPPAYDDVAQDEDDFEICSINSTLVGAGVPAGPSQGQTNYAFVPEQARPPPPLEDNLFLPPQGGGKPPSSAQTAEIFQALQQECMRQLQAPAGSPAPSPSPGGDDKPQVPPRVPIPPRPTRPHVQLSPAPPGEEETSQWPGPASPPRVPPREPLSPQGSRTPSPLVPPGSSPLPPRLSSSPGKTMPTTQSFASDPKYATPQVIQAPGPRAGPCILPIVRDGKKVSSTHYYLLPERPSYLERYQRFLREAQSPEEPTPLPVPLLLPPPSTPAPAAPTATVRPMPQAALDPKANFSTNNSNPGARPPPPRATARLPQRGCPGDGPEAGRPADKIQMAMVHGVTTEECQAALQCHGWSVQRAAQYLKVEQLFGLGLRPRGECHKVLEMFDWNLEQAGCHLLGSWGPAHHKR
protein kinases (human kinome) (Homo sapiens, UniProt P50613), sequence (P50613 whole entry): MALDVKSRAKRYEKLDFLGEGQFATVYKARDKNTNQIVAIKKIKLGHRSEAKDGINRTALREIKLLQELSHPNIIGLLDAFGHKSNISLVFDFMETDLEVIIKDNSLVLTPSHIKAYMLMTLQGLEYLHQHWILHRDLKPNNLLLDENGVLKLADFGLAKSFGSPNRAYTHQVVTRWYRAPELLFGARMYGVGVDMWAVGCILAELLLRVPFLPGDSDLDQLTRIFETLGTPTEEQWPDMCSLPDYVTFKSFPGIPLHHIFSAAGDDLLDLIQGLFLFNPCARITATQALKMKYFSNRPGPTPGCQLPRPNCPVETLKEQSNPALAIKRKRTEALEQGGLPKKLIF

SMILES: CC(=O)c1c(C)c2cnc(Nc3ccc(N4CCN(CCOCCOCCOCCNC(=O)COc5cccc6c5C(=O)N(C5CCC(=O)NC5=O)C6=O)CC4)cn3)nc2n(C2CCCC2)c1=O (centres unmarked) [BSJ.03.123]
- logFC AGK (Q53H12) ([1]; Experiment wp084): −0.6506
- logFC NADK2 ([2]; experiment wp084): −0.4839

SMILES: CN(C)C(=O)c1cc2cnc(Nc3ccc(N4CCN(CCCCNC(=O)COc5cccc6c5C(=O)N(C5CCC(=O)NC5=O)C6=O)CC4)cn3)nc2n1C1CCCC1 (centres unmarked) [BSJ.04.132]
- logFC AGK (Q53H12) ([1]; Experiment wp084): −0.6709
- logFC NADK2 ([2]; experiment wp084): −0.5591

SMILES: CC(C)(C)c1nc(-c2cccc(NS(=O)(=O)c3c(F)cccc3F)c2F)c(-c2ccnc(NCCOCCNC(=O)CCOCCOCCNc3cccc4c3C(=O)N(C3CCC(=O)NC3=O)C4=O)n2)s1 (centres unmarked) [DD.03.106]
- logFC AGK (Q53H12) ([1]; Experiment wp147, 2 uM): −0.346
- logFC AGK (Q53H12) ([1]; Experiment wp147, 4 uM): −0.9499
- logFC NADK2 ([2]; experiment wp147, 4 uM): −0.6976

SMILES: CC(C)(C)c1nc(-c2cccc(NS(=O)(=O)c3c(F)cccc3F)c2F)c(-c2ccnc(NCCOCCNC(=O)CCOCCOCCNc3cccc4c3CN(C3CCC(=O)NC3=O)C4=O)n2)s1 (centres unmarked) [DD.03.107]
- logFC AGK (Q53H12) ([1]; Experiment wp147, 1 uM): −0.7983
- logFC AGK (Q53H12) ([1]; Experiment wp147, 2 uM): −0.8655
- logFC AGK (Q53H12) ([1]; Experiment wp147, 4 uM): −1.343
- logFC NADK2 ([2]; experiment wp147, 1 uM): −0.5404
- logFC NADK2 ([2]; experiment wp147, 2 uM): −0.4442
- logFC NADK2 ([2]; experiment wp147, 4 uM): −0.9504

SMILES: O=C(COc1cccc2c1C(=O)N(C1CCC(=O)NC1=O)C2=O)NCCCCCCCC(=O)NC1(c2ccc(-c3nc4ccn5c(=O)[nH]nc5c4cc3-c3ccccc3)cc2)CCC1 (centres unmarked) [INY.01.140.1]
- logFC AGK (Q53H12) ([1]; Experiment wp081): −0.4936
- logFC NADK2 ([2]; experiment wp081): −0.3886

SMILES: CC(C)S(=O)(=O)c1ccccc1Nc1nc(Nc2ccc(N3CCN(CCOCCNC(=O)CNc4cccc5c4C(=O)N(C4CCC(=O)NC4=O)C5=O)CC3)cc2)ncc1Cl (centres unmarked) [SK.3.91]
- logFC TNK2 (Q07912-1) ([3]; Experiment wp133, 2 hr): −1.053
- logFC TNK2 (Q07912-1) ([3]; Experiment wp133, 4 hr): −2.261
- logFC TNK2 ([3]; experiment wp133, 2 hr): −1.053
- logFC TNK2 ([3]; experiment wp133, 4 hr): −2.261
- logFC ([4]; experiment wp016, 1 uM): −0.7032
- logFC STK17A ([4]; experiment wp016, 1 uM): −0.7032
- logFC ([4]; experiment wp103): −0.6201
- logFC STK17A ([4]; experiment wp103): −0.6201
- logFC ([4]; experiment wp107): −0.6984
- logFC STK17A ([4]; experiment wp107): −0.6984
- logFC ([4]; experiment wp133, 4 hr): −0.5458
- logFC STK17A ([4]; experiment wp133, 4 hr): −0.5458
- logFC ([4]; experiment wp172): −0.3963
- logFC STK17A ([4]; experiment wp172): −0.3963
- logFC STK17B (O94768) ([5]; Experiment wp016, 1 uM): −0.327
- logFC STK17B (O94768) ([5]; Experiment wp133, 4 hr): −0.545
- logFC ([5]; experiment wp016, 1 uM): −0.327
- logFC ([5]; experiment wp133, 4 hr): −0.545
- logFC CDK7 ([6]; experiment wp016): −0.5236
- logFC CDK7 ([6]; experiment wp105): −0.6307
- logFC CDK7 ([6]; experiment wp107): −0.4632
- logFC CDK7 ([6]; experiment wp114): −0.5255
- logFC CDK7 ([6]; experiment wp172): −1.186
- logFC ([7]; 1 uM): −1.077
- logFC ([7]; 2 hr): −0.3453
- logFC ([7]; 4 hr): −0.8519 and −0.7658
- logFC ABL2 (P42684) ([7]; Experiment wp107): −1.032
- logFC ABL2 (P42684) ([7]; experiment wp016): −0.4963
- logFC ABL2 (P42684) ([7]; experiment wp016, 1 uM): −1.077
- logFC ABL2 (P42684) ([7]; experiment wp133, 2 hr): −0.3453
- logFC ABL2 (P42684) ([7]; experiment wp133, 4 hr): −0.8519
- logFC ABL2 (P42684) ([7]; experiment wp160, 4 hr): −0.7658
- logFC NADK2 ([2]; experiment wp160, 1 hr): −0.698

SMILES: C=CCn1c(=O)c2cnc(Nc3ccc(N4CCN(CCCNc5cccc6c5C(=O)N(C5CCC(=O)NC5=O)C6=O)CC4)cc3)nc2n1-c1cccc(C(C)(C)O)n1 (centres unmarked) [ZNL.02.096]
- logFC AGK (Q53H12) ([1]; Experiment wp056): −0.5514
- logFC NADK2 ([2]; experiment wp118): −0.4004
